Measurements: publication PMC11904604, “MRM-based LC-MS method for accurate C-peptide quantitation” (Journal of Mass Spectrometry and Advances in the Clinical …, 2025)

Assay: in vitro
Conditions: human, serum

metabolised at 48 h, 0.53 nmol/L: 2.4% | metabolised at 48 h, 2.88 nmol/L: 6.3%
Structure (SMILES): CC(C)C[C@H](NC(=O)[C@H](C)NC(=O)[C@H](CC(C)C)NC(=O)[C@@H]1CCCN1C(=O)[C@H](CCC(N)=O)NC(=O)[C@H](CC(C)C)NC(=O)[C@H](CO)NC(=O)CNC(=O)[C@H](C)NC(=O)CNC(=O)[C@@H]1CCCN1C(=O)CNC(=O)CNC(=O)CNC(=O)[C@H](CC(C)C)NC(=O)[C@H](CCC(=O)O)NC(=O)[C@@H](NC(=O)[C@H](CCC(N)=O)NC(=O)CNC(=O)[C@@H](NC(=O)[C@H](CCC(N)=O)NC(=O)[C@H](CC(C)C)NC(=O)[C@H](CC(=O)O)NC(=O)[C@H](CCC(=O)O)NC(=O)[C@H](C)NC(=O)[C@@H](N)CCC(=O)O)C(C)C)C(C)C)C(=O)N[C@@H](CCC(=O)O)C(=O)NCC(=O)N[C@@H](CO)C(=O)N[C@@H](CC(C)C)C(=O)N[C@@H](CCC(N)=O)C(=O)O [C-peptide]
